Reference: ChEMBL document CHEMBL3885881, “DrugMatrix”

Organism: Rattus norvegicus
Test: DrugMatrix - Regimen: Daily Repeat
Format: toxicity, organism-based, Sprague-Dawley
Design: regimen Daily Repeat, gender Male, age 6-8 weeks
Details: in vivo, po, route oral GAVAGE, vehicle .5 % CMC; for ABSOLUTE BASOPHIL / ABSOLUTE EOSINOPHIL / ABSOLUTE LYMPHOCYTE / ABSOLUTE MONOCYTE / ABSOLUTE SEGMENTED NEUTROPHIL / BASOPHIL / EOSINOPHIL / ERYTHROCYTE COUNT / HEMATOCRIT / HEMOGLOBIN / LEUKOCYTE COUNT / LYMPHOCYTE / MEAN CORPUSCULAR HEMOGLOBIN / MEAN CORPUSCULAR HEMOGLOBIN CONCENTRATION / MEAN CORPUSCULAR VOLUME / MONOCYTE / NEUTROPHIL / NUCLEATED RED BLOOD CELLS / PLATELET COUNT: tissue Blood; for ALANINE AMINOTRANSFERASE / ALBUMIN / ALKALINE PHOSPHATASE / ASPARTATE AMINOTRANSFERASE / BLOOD UREA NITROGEN / CARBON DIOXIDE / CHLORIDE / CHOLESTEROL / CREATINE PHOSPHOKINASE / CREATININE / GLUCOSE / LACTATE DEHYDROGENASE / LIPASE / PHOSPHORUS / POTASSIUM / SODIUM / TOTAL BILIRUBIN / TOTAL PROTEIN / URIC ACID: tissue Plasma
[1] = 88 mg/kg, 72 h, dose level Low, time 3 day
[2] = 88 mg/kg, 120 h, dose level Low, time 5 day
[3] = 1500 mg/kg, 72 h, dose level High, time 3 day
[4] = 1500 mg/kg, 120 h, dose level High, time 5 day

SMILES: NC(=O)c1cnccn1 [PYRAZINAMIDE]
- ABSOLUTE BASOPHIL [1]: 0 CELLS/uL
- ABSOLUTE EOSINOPHIL [1]: 30.67 CELLS/uL
- ABSOLUTE LYMPHOCYTE [1]: 12250.33 CELLS/uL
- ABSOLUTE MONOCYTE [1]: 470.67 CELLS/uL
- ABSOLUTE SEGMENTED NEUTROPHIL [1]: 1315 CELLS/uL
- BASOPHIL [1]: 0%
- EOSINOPHIL [1]: 0.33%
- ERYTHROCYTE COUNT [1]: 5.55 x10E6/uL
- HEMATOCRIT [1]: 35.93%
- HEMOGLOBIN [1]: 13.4 G/DL
- LEUKOCYTE COUNT [1]: 14.07 x10E3/uL
- LYMPHOCYTE [1]: 87%
- MEAN CORPUSCULAR HEMOGLOBIN [1]: 24.2 pg
- MEAN CORPUSCULAR HEMOGLOBIN CONCENTRATION [1]: 37.27 G/DL
- MEAN CORPUSCULAR VOLUME [1]: 64.83 fL
- MONOCYTE [1]: 3%
- NEUTROPHIL [1]: 9.67%
- NUCLEATED RED BLOOD CELLS [1]: 0 /100WBC
- PLATELET COUNT [1]: 1204.33 x10E3/uL
- ALANINE AMINOTRANSFERASE [1]: 44.33 u/L
- ALBUMIN [1]: 4.73 G/DL
- ALKALINE PHOSPHATASE [1]: 375 u/L
- ASPARTATE AMINOTRANSFERASE [1]: 85.33 u/L
- BLOOD UREA NITROGEN [1]: 14.67 mg/dL
- CARBON DIOXIDE [1]: 22.67 mmol/L
- CHLORIDE [1]: 102.67 MEQ/L
- CHOLESTEROL [1]: 74.33 mg/dL
- CREATINE PHOSPHOKINASE [1]: 282.33 u/L
- CREATININE [1]: 0.22 mg/dL
- GLUCOSE [1]: 147 mg/dL
- LACTATE DEHYDROGENASE [1]: 427 u/L
- LIPASE [1]: 10 u/L
- PHOSPHORUS [1]: 12.4 mg/dL
- POTASSIUM [1]: 7.05 MEQ/L
- SODIUM [1]: 145.67 MEQ/L
- TOTAL BILIRUBIN [1]: 0.27 mg/dL
- TOTAL PROTEIN [1]: 5.97 G/DL
- URIC ACID [1]: 2.43 mg/dL
- ABSOLUTE BASOPHIL [2]: 0 CELLS/uL
- ABSOLUTE EOSINOPHIL [2]: 154 CELLS/uL
- ABSOLUTE LYMPHOCYTE [2]: 11236 CELLS/uL
- ABSOLUTE MONOCYTE [2]: 491 CELLS/uL
- ABSOLUTE SEGMENTED NEUTROPHIL [2]: 1385.67 CELLS/uL
- BASOPHIL [2]: 0%
- EOSINOPHIL [2]: 1%
- ERYTHROCYTE COUNT [2]: 5.75 x10E6/uL
- HEMATOCRIT [2]: 35.9%
- HEMOGLOBIN [2]: 13.43 G/DL
- LEUKOCYTE COUNT [2]: 13.27 x10E3/uL
- LYMPHOCYTE [2]: 85%
- MEAN CORPUSCULAR HEMOGLOBIN [2]: 23.4 pg
- MEAN CORPUSCULAR HEMOGLOBIN CONCENTRATION [2]: 37.47 G/DL
- MEAN CORPUSCULAR VOLUME [2]: 62.43 fL
- MONOCYTE [2]: 3.67%
- NEUTROPHIL [2]: 10.33%
- NUCLEATED RED BLOOD CELLS [2]: 0.33 /100WBC
- PLATELET COUNT [2]: 1159.33 x10E3/uL
- ALANINE AMINOTRANSFERASE [2]: 36 u/L
- ALBUMIN [2]: 4.27 G/DL
- ALKALINE PHOSPHATASE [2]: 325.33 u/L
- ASPARTATE AMINOTRANSFERASE [2]: 95.33 u/L
- BLOOD UREA NITROGEN [2]: 20 mg/dL
- CARBON DIOXIDE [2]: 24 mmol/L
- CHLORIDE [2]: 108.33 MEQ/L
- CHOLESTEROL [2]: 66 mg/dL
- CREATINE PHOSPHOKINASE [2]: 516 u/L
- CREATININE [2]: 0.22 mg/dL
- GLUCOSE [2]: 133.67 mg/dL
- LACTATE DEHYDROGENASE [2]: 846.33 u/L
- LIPASE [2]: 9 u/L
- PHOSPHORUS [2]: 11.63 mg/dL
- POTASSIUM [2]: 5.99 MEQ/L
- SODIUM [2]: 145.83 MEQ/L
- TOTAL BILIRUBIN [2]: 0.13 mg/dL
- TOTAL PROTEIN [2]: 6.07 G/DL
- URIC ACID [2]: 1.4 mg/dL
- ABSOLUTE BASOPHIL [3]: 0 CELLS/uL
- ABSOLUTE EOSINOPHIL [3]: 133 CELLS/uL
- ABSOLUTE LYMPHOCYTE [3]: 8872.33 CELLS/uL
- ABSOLUTE MONOCYTE [3]: 166.33 CELLS/uL
- ABSOLUTE SEGMENTED NEUTROPHIL [3]: 1061.67 CELLS/uL
- BASOPHIL [3]: 0%
- EOSINOPHIL [3]: 1.33%
- ERYTHROCYTE COUNT [3]: 5.4 x10E6/uL
- HEMATOCRIT [3]: 35.87%
- HEMOGLOBIN [3]: 13.37 G/DL
- LEUKOCYTE COUNT [3]: 10.23 x10E3/uL
- LYMPHOCYTE [3]: 86.67%
- MEAN CORPUSCULAR HEMOGLOBIN [3]: 24.8 pg
- MEAN CORPUSCULAR HEMOGLOBIN CONCENTRATION [3]: 37.33 G/DL
- MEAN CORPUSCULAR VOLUME [3]: 66.4 fL
- MONOCYTE [3]: 1.67%
- NEUTROPHIL [3]: 10.33%
- NUCLEATED RED BLOOD CELLS [3]: 0 /100WBC
- PLATELET COUNT [3]: 1418.67 x10E3/uL
- ALANINE AMINOTRANSFERASE [3]: 48.33 u/L
- ALBUMIN [3]: 4.13 G/DL
- ALKALINE PHOSPHATASE [3]: 315.67 u/L
- ASPARTATE AMINOTRANSFERASE [3]: 85.67 u/L
- BLOOD UREA NITROGEN [3]: 16.67 mg/dL
- CARBON DIOXIDE [3]: 28 mmol/L
- CHLORIDE [3]: 103.33 MEQ/L
- CHOLESTEROL [3]: 73 mg/dL
- CREATINE PHOSPHOKINASE [3]: 136.33 u/L
- CREATININE [3]: 0.15 mg/dL
- GLUCOSE [3]: 153 mg/dL
- LACTATE DEHYDROGENASE [3]: 76 u/L
- LIPASE [3]: 9 u/L
- PHOSPHORUS [3]: 10.47 mg/dL
- POTASSIUM [3]: 5.73 MEQ/L
- SODIUM [3]: 146 MEQ/L
- TOTAL BILIRUBIN [3]: 0.23 mg/dL
- TOTAL PROTEIN [3]: 5.77 G/DL
- URIC ACID [3]: 1.47 mg/dL
- ABSOLUTE BASOPHIL [4]: 0 CELLS/uL
- ABSOLUTE EOSINOPHIL [4]: 88 CELLS/uL
- ABSOLUTE LYMPHOCYTE [4]: 11940 CELLS/uL
- ABSOLUTE MONOCYTE [4]: 519 CELLS/uL
- ABSOLUTE SEGMENTED NEUTROPHIL [4]: 1353 CELLS/uL
- BASOPHIL [4]: 0%
- EOSINOPHIL [4]: 0.67%
- ERYTHROCYTE COUNT [4]: 6.59 x10E6/uL
- HEMATOCRIT [4]: 40.1%
- HEMOGLOBIN [4]: 14.83 G/DL
- LEUKOCYTE COUNT [4]: 13.9 x10E3/uL
- LYMPHOCYTE [4]: 86%
- MEAN CORPUSCULAR HEMOGLOBIN [4]: 22.5 pg
- MEAN CORPUSCULAR HEMOGLOBIN CONCENTRATION [4]: 37.03 G/DL
- MEAN CORPUSCULAR VOLUME [4]: 60.83 fL
- MONOCYTE [4]: 3.67%
- NEUTROPHIL [4]: 9.67%
- NUCLEATED RED BLOOD CELLS [4]: 0 /100WBC
- PLATELET COUNT [4]: 1142.67 x10E3/uL
- ALANINE AMINOTRANSFERASE [4]: 56.33 u/L
- ALBUMIN [4]: 4.53 G/DL
- ALKALINE PHOSPHATASE [4]: 308 u/L
- ASPARTATE AMINOTRANSFERASE [4]: 93.33 u/L
- BLOOD UREA NITROGEN [4]: 16.67 mg/dL
- CARBON DIOXIDE [4]: 25.33 mmol/L
- CHLORIDE [4]: 104.5 MEQ/L
- CHOLESTEROL [4]: 70.67 mg/dL
- CREATINE PHOSPHOKINASE [4]: 254.33 u/L
- CREATININE [4]: 0.17 mg/dL
- GLUCOSE [4]: 185.67 mg/dL
- LACTATE DEHYDROGENASE [4]: 177.33 u/L
- LIPASE [4]: 9 u/L
- PHOSPHORUS [4]: 12.47 mg/dL
- POTASSIUM [4]: 5.72 MEQ/L
- SODIUM [4]: 147.8 MEQ/L
- TOTAL BILIRUBIN [4]: 0.2 mg/dL
- TOTAL PROTEIN [4]: 6.07 G/DL
- URIC ACID [4]: 1.37 mg/dL
